Assay results reported in patent publication US12421225B2, “Heteroaromatic amide derivative and medicament containing the same” (KAKEN PHARMACEUTICAL CO., LTD., priority 2018, dated 2025).

Target: human Nav1.7 (Homo sapiens (Human), UniProt Q15858)
Experiment: Human Nav1.7 inhibitory activity evaluation (automated patch clamp QPatch16X, HEK293A cells stably expressing human Nav1.7 and human Navβ1)
Format: cell-based
Conditions: human Nav1.7, automated patch clamp
How it was run: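 QPatch16X whole-cell recordings at room temperature from HEK293A cells stably expressing human Nav1.7 with Navβ1, CsF-based internal solution, pH 7.4 external, 0.1% DMSO. From −100 mV holding, protocol included a 15 s hold at a potential inactivating ~30-40% of channels; IC50 from inward current at the second −10 mV pulse.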

Chain of human Nav1.7 (Q15858 whole entry): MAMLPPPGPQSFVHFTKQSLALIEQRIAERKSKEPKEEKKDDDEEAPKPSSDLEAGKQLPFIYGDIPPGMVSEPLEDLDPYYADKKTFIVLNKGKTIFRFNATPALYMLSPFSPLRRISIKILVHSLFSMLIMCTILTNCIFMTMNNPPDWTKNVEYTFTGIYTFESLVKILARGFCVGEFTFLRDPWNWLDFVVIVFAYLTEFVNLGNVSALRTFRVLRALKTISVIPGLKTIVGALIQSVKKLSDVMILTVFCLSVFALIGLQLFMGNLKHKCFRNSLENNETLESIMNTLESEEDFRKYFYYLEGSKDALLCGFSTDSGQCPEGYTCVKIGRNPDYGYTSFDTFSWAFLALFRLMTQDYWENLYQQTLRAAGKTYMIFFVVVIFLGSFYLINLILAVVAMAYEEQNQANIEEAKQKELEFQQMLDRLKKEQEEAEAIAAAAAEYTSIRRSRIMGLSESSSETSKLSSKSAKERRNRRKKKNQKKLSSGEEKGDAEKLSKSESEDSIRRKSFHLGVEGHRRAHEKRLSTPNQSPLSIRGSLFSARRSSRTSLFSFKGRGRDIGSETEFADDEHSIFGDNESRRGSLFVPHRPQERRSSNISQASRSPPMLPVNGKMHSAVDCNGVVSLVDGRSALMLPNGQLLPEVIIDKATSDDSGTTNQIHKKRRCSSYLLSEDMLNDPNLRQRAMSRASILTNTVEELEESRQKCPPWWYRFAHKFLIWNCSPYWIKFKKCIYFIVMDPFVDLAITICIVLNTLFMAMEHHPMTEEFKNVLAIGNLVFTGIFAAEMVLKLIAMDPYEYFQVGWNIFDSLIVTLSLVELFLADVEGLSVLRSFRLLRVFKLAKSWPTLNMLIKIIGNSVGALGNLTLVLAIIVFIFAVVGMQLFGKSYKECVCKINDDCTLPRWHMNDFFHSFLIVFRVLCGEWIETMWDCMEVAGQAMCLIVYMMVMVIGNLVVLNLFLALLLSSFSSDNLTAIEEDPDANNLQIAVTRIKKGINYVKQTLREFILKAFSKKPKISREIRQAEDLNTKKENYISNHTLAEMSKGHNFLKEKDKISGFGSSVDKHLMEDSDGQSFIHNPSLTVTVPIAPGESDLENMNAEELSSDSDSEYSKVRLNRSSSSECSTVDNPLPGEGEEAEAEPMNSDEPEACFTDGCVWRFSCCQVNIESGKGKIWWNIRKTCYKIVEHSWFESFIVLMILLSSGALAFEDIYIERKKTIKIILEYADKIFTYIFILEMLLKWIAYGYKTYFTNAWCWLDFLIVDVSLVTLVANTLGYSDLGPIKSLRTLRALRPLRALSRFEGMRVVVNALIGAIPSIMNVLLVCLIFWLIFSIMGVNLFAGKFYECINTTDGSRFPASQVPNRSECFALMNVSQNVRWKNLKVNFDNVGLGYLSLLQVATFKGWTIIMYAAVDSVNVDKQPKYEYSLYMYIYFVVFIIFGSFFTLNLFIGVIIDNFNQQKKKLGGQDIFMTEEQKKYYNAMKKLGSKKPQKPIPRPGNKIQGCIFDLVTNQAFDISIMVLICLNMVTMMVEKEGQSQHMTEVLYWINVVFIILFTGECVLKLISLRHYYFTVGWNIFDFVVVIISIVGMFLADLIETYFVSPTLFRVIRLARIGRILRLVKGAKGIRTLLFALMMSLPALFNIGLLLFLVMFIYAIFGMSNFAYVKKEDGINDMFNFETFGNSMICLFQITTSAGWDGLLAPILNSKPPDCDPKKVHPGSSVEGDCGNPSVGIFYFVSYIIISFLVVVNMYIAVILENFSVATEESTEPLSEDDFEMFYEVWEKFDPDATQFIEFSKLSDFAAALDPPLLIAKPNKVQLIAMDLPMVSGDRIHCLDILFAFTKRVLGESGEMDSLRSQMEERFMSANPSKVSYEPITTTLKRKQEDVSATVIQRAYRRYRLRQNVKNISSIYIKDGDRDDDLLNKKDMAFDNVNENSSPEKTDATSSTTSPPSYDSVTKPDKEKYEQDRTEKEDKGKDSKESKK
Chain of human Nav1.7 (Q07699 19-218 partner): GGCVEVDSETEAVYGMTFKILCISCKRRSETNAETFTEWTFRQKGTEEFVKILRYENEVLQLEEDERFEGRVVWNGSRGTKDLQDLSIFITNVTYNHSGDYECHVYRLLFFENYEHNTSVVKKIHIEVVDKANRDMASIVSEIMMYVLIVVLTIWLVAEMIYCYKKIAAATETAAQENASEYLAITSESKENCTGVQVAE

| SMILES | IC50 [µM] |
| --- | --- |
| O=C(N[C@H]1COc2ccc(C(F)(F)F)cc2C1O)c1cc2n(n1)CCC(COCC1CC1)O2 (some centres unmarked) [Example 559] | < 10 |
| O=C(N[C@H]1COc2ccc(C(F)(F)F)cc2C1O)c1cc2n(n1)CCC(COCC(F)(F)F)O2 (some centres unmarked) [Example 561] | < 10 |
| N#Cc1ccc2c(c1)C[C@@H](NC(=O)c1cc3n(n1)CCC(CC(F)(F)F)O3)CO2 (some centres unmarked) [Example 562] | < 10 |
| O=C(N[C@H]1COc2ccc(CC(F)F)cc2C1)c1cc2n(n1)CC(CC1CCOCC1)O2 (some centres unmarked) [Example 564] | < 10 |
| COC1c2cc(C(F)(F)F)ccc2OC[C@@H]1NC(=O)c1cc2n(n1)CC(COCC(F)(F)F)O2 (some centres unmarked) [Example 569] | < 1 |
| O=C(NC1COc2ccc(Cl)cc2C1O)c1cc2n(n1)CCC(COCC1CC1)O2 (centres unmarked) [Example 571] | < 10 |
| N#Cc1ccc2c(c1)C(O)C(NC(=O)c1cc3n(n1)CCC(c1ccccc1F)O3)CO2 (centres unmarked) [Example 573] | < 10 |
| CCC1(O)CCn2nc(C(=O)N[C@H]3COc4ccc(C(F)(F)F)cc4C3)cc2OC1 (some centres unmarked) [Example 582] | < 10 |
| N#Cc1ccc2c(c1)C[C@@H](NC(=O)c1cc3n(n1)CCC(C1CCOCC1)O3)CO2 (some centres unmarked) [Example 585] | < 10 |
| O=C(N[C@H]1COc2ccc(C(F)(F)F)cc2C1O)c1cc2n(n1)CC(CSCC(F)(F)F)O2 (some centres unmarked) [Example 587] | < 10 |
| O=C(N[C@H]1COc2ccc(C(F)(F)F)cc2C1O)c1cc2n(n1)CC(CCOCC(F)(F)F)O2 (some centres unmarked) [Example 589] | < 10 |
| O=C(N[C@H]1COc2ccc(C(F)(F)F)cc2C1O)c1cc2n(n1)CC(CCCOCC(F)(F)F)O2 (some centres unmarked) [Example 592] | < 10 |
| O=C(N[C@H]1COc2ccc(C(F)(F)F)cc2C1O)c1cc2n(n1)CC(CCCOCC(F)F)O2 (some centres unmarked) [Example 609] | < 10 |
| O=C(N[C@H]1COc2ccc(C(F)(F)F)cc2C1)c1cc2n(n1)CCC(C1CCOC1)O2 (some centres unmarked) [Example 612] | < 10 |
| CC1(COCC2CC2)Cn2nc(C(=O)N[C@H]3COc4ccc(C#N)cc4C3)cc2O1 (some centres unmarked) [Example 618] | < 10 |
| CC1(COCC2CC2)Cn2nc(C(=O)N[C@H]3COc4ccc(CC(F)F)cc4C3)cc2O1 (some centres unmarked) [Example 619] | < 10 |
| O=C(NC1COc2ccc(F)c(F)c2C1)c1cc2n(n1)CCC(C(F)(F)F)O2 (centres unmarked) [Example 626] | < 10 |
| O=C(NC1COc2ccc(F)c(F)c2C1)c1cc2n(n1)CCC(COCC(F)(F)F)O2 (centres unmarked) [Example 627] | < 10 |
| O=C(N[C@H]1COc2ccc(COCC(F)(F)F)cc2C1)c1cc2n(n1)CCC(COCC(F)F)O2 (some centres unmarked) [Example 635] | < 1 |
| O=C(N[C@H]1COc2ccc(C(F)(F)F)cc2C1F)c1cc2n(n1)CCN(C1CCOCC1)C2 (some centres unmarked) [Example 637] | < 10 |
| O=C(N[C@H]1COc2ccc(COCC(F)(F)F)cc2C1)c1cc2n(n1)CCC(C1COCCO1)O2 (some centres unmarked) [Example 638] | < 10 |

| SMILES | IC50 [µM] |
| --- | --- |
| O=C(NC1COc2ccc(F)c(F)c2C1)c1cc2n(n1)CC(CCOCC1CC1)O2 (centres unmarked) [Example 639] | < 1 |
| O=C(NC1COc2ccc(F)c(F)c2C1)c1cc2n(n1)CC(CCCOCC(F)F)O2 (centres unmarked) [Example 640] | < 1 |
| O=C(N[C@H]1COc2ccc(C(F)(F)F)cc2C1F)c1cc2n(n1)CCN(CC1CCOCC1)C2 (some centres unmarked) [Example 642] | < 10 |
| O=C(N[C@H]1COc2ccc(C(F)(F)F)cc2C1F)c1cc2n(n1)CCN(C1COC1)C2 (some centres unmarked) [Example 643] | < 10 |
| O=C(N[C@H]1COc2ccc(C(F)(F)F)cc2C1)c1cc2n(n1)CCN(CCOCC(F)(F)F)C2 [Example 644] | < 1 |
| O=C(N[C@H]1COc2ccc(C(F)(F)F)cc2C1F)c1cc2n(n1)CCN(CCOCC(F)(F)F)C2 (some centres unmarked) [Example 645] | < 1 |
| O=C(N[C@H]1COc2ccc(C(F)(F)F)cc2C1F)c1cc2n(n1)CCN(CC1CCO1)C2 (some centres unmarked) [Example 646] | < 1 |
| O=C(N[C@H]1COc2ccc(C(F)(F)F)cc2C1F)c1cc2n(n1)CCN(CCC(F)(F)F)C2 (some centres unmarked) [Example 647] | < 1 |
| N#Cc1ccc2c(c1)C(F)[C@@H](NC(=O)c1cc3n(n1)CCC(C(F)(F)F)O3)CO2 (some centres unmarked) [Example 648] | < 10 |
| N#Cc1ccc2c(c1)C(F)[C@@H](NC(=O)c1cc3n(n1)CCC(C(F)(F)F)CO3)CO2 (some centres unmarked) [Example 649] | < 10 |
| N#Cc1ccc2c(c1)C(F)[C@@H](NC(=O)c1cc3n(n1)CC(CCOCC1CC1)O3)CO2 (some centres unmarked) [Example 650] | < 1 |
| O=C(N[C@H]1COc2ccc(COCC(F)(F)F)cc2C1)c1cc2n(n1)CCC(C1CCCO1)O2 (some centres unmarked) [Example 651] | < 1 |
| O=C(N[C@H]1COc2ccc(C(F)(F)F)cc2C1O)c1cc2n(n1)CCN(CCOCC1CC1)C2 (some centres unmarked) [Example 652] | < 10 |
| O=C(N[C@H]1COc2ccc(C(F)(F)F)cc2C1)c1cc2n(n1)CCN(CC1CCOCC1)C2 [Example 653] | < 10 |
| O=C(N[C@H]1COc2ccc(C(F)(F)F)cc2C1F)c1cc2n(n1)CCN(CCOCC1CC1)C2 (some centres unmarked) [Example 654] | < 1 |
| O=C(N[C@H]1COc2ccc(COCC(F)(F)F)cc2C1)c1cc2n(n1)CCC(CC1CCOCC1)O2 (some centres unmarked) [Example 655] | < 1 |
| CCC1(O)CCn2nc(C(=O)N[C@H]3COc4ccc(C(F)(F)F)cc4C3F)cc2OC1 (some centres unmarked) [Example 656] | < 10 |
| O=C(N[C@H]1COc2ccc(C(F)(F)F)cc2C1)c1cc2n(n1)CC(COCCOCC(F)(F)F)O2 (some centres unmarked) [Example 657] | < 1 |
| O=C(N[C@H]1COc2ccc(Cl)cc2C1)c1cc2n(n1)CC(COCCOCC(F)(F)F)O2 (some centres unmarked) [Example 658] | < 1 |
| N#Cc1ccc2c(c1)C[C@@H](NC(=O)c1cc3n(n1)CC(COCCOCC(F)(F)F)O3)CO2 (some centres unmarked) [Example 659] | < 10 |

Now from value to molecule:

| IC50 [µM] | SMILES |
| --- | --- |
| < 1 | O=C(N[C@H]1COc2ccc(CC(F)F)cc2C1)c1cc2n(n1)CCC(COCC(F)(F)F)CO2 (some centres unmarked) [Example 557] |
| < 1 | O=C(N[C@H]1COc2ccc(C(F)(F)F)cc2C1O)c1cc2n(n1)CCC(COCC1CC1)O2 (some centres unmarked) [Example 558] |
| < 1 | O=C(N[C@H]1COc2ccc(C(F)(F)F)cc2C1O)c1cc2n(n1)CC(COCC1CC1)O2 (some centres unmarked) [Example 560] |
| < 1 | N#Cc1ccc2c(c1)C[C@@H](NC(=O)c1cc3n(n1)CC(CC1CCOCC1)O3)CO2 (some centres unmarked) [Example 565] |
| < 1 | O=C(N[C@H]1COc2ccc(I)cc2C1)c1cc2n(n1)CCC(C(F)F)O2 (some centres unmarked) [Example 566] |
| < 1 | O=C(N[C@H]1COc2ccc(CC(F)F)cc2C1)c1cc2n(n1)CCC(COCC1(F)CC1)O2 (some centres unmarked) [Example 567] |
| < 1 | COC1c2cc(C(F)(F)F)ccc2OC[C@@H]1NC(=O)c1cc2n(n1)CCC(COCC(F)(F)F)O2 (some centres unmarked) [Example 570] |
| < 1 | O=C(N[C@H]1COc2cccc(Cl)c2C1)c1cc2n(n1)CCC(COCC(F)(F)F)O2 (some centres unmarked) [Example 574] |
| < 1 | Cc1cccc(-c2c(C(=O)N[C@H]3COc4ccc(C(F)(F)F)cc4C3O)nn3c2COCC3)n1 (some centres unmarked) [Example 580] |
| < 1 | CCc1cccc(-c2c(C(=O)N[C@H]3COc4ccc(C(F)(F)F)cc4C3O)nn3c2COCC3)n1 (some centres unmarked) [Example 581] |
| < 1 | O=C(N[C@H]1COc2ccc(C(F)(F)F)cc2C1)c1cc2n(n1)CCC(C1CCOCC1)O2 (some centres unmarked) [Example 583] |
| < 1 | O=C(N[C@H]1COc2ccc(Cl)cc2C1)c1cc2n(n1)CCC(C1CCOCC1)O2 (some centres unmarked) [Example 584] |
| < 1 | O=C(N[C@H]1COc2ccc(CC(F)F)cc2C1)c1cc2n(n1)CCC(C1CCOCC1)O2 (some centres unmarked) [Example 586] |
| < 1 | O=C(N[C@H]1COc2ccc(C(F)(F)F)cc2C1O)c1cc2n(n1)CC(CCOCC(F)(F)F)O2 (some centres unmarked) [Example 588] |
| < 1 | O=C(N[C@H]1COc2ccc(C(F)(F)F)cc2C1O)c1cc2n(n1)CC(CCCOCC(F)(F)F)O2 (some centres unmarked) [Example 591] |
| < 1 | O=C(N[C@H]1COc2ccc(C(F)(F)F)cc2C1O)c1cc2n(n1)CC(CCOCC1CC1)O2 (some centres unmarked) [Example 595] |
| < 1 | CCC1CCn2nc(C(=O)N[C@H]3COc4ccc(C(F)(F)F)cc4C3O)cc2O1 (some centres unmarked) [Example 599] |

| IC50 [µM] | SMILES |
| --- | --- |
| < 1 | O=C(N[C@H]1COc2ccc(COCC(F)(F)F)cc2C1)c1cc2n(n1)CCC(C1CCOCC1)O2 (some centres unmarked) [Example 606] |
| < 1 | O=C(N[C@H]1COc2ccc(C(F)(F)F)cc2C1O)c1cc2n(n1)CC(CCCOCC(F)F)O2 (some centres unmarked) [Example 607] |
| < 1 | O=C(N[C@H]1COc2ccc(Cl)cc2C1)c1cc2n(n1)CCC(C1CCOC1)O2 (some centres unmarked) [Example 611] |
| < 1 | O=C(N[C@H]1COc2ccc(C(F)(F)F)cc2C1F)c1cc2n(n1)CCC(C1CCOC1)O2 (some centres unmarked) [Example 613] |
| < 1 | O=C(N[C@H]1COc2ccc(C(F)(F)F)cc2C1)c1cc2n(n1)CCC(C1COCCO1)O2 (some centres unmarked) [Example 620] |
| < 1 | COC1c2cc(C(F)(F)F)ccc2OC[C@@H]1NC(=O)c1cc2n(n1)CC(CCOCC(F)(F)F)O2 (some centres unmarked) [Example 621] |
| < 1 | N#Cc1ccc2c(c1)C[C@@H](NC(=O)c1cc3n(n1)CC(CCC1CCOCC1)O3)CO2 (some centres unmarked) [Example 623] |
| < 1 | O=C(N[C@H]1COc2ccc(C(F)(F)F)cc2C1F)c1cc2n(n1)CCC(COCC(F)F)O2 (some centres unmarked) [Example 624] |
| < 1 | O=C(N[C@H]1COc2ccc(C(F)(F)F)cc2C1F)c1cc2n(n1)CCN(CCOC1CCC1)C2 (some centres unmarked) [Example 625] |
| < 1 | O=C(NC1COc2ccc(F)c(F)c2C1)c1cc2n(n1)CC(CCCOCC(F)(F)F)O2 (centres unmarked) [Example 628] |
| < 1 | O=C(NC1COc2ccc(F)c(F)c2C1)c1cc2n(n1)CC(CCOCC(F)(F)F)O2 (centres unmarked) [Example 629] |
| < 1 | O=C(N[C@H]1COc2ccc(COCC(F)(F)F)cc2C1)c1cc2n(n1)CCC(C1CCOC1)O2 (some centres unmarked) [Example 630] |
| < 1 | O=C(N[C@H]1COc2ccc(COCC(F)(F)F)cc2C1)c1cc2n(n1)CCC(C1COCCO1)O2 (some centres unmarked) [Example 631] |
| < 1 | O=C(N[C@H]1COc2ccc(COCC(F)(F)F)cc2C1)c1cc2n(n1)CCC(C(F)(F)F)CO2 (some centres unmarked) [Example 632] |
| < 1 | O=C(N[C@H]1COc2ccc(CC(F)F)cc2C1)c1cc2n(n1)CCC(C(F)(F)F)CO2 (some centres unmarked) [Example 633] |
| < 1 | O=C(N[C@H]1COc2ccc(C(F)(F)F)cc2C1F)c1cc2n(n1)CCC(COCC(F)(F)F)CO2 (some centres unmarked) [Example 634] |
